From patent US7863465B2, “Antifungal agents” (Merck Sharp & Dohme Corp., priority 2006, dated 2011) come the findings set out here.

As a reminder, the IC50 is the concentration that gives 50% inhibition.

The target of this assay is T1, glucan synthase (GS) prepared from Candida albicans MY1055 (Candida albicans, UniProt O13428).
T1 construct: Extraction of GS activity from membranes was performed at a protein concentration of 5 mg/mL in extraction buffer; endogenous in cells; host or cells: Candida albicans MY1055 (membranes, detergent extract, product entrapment)
T1 sequence (O13428 1-1897): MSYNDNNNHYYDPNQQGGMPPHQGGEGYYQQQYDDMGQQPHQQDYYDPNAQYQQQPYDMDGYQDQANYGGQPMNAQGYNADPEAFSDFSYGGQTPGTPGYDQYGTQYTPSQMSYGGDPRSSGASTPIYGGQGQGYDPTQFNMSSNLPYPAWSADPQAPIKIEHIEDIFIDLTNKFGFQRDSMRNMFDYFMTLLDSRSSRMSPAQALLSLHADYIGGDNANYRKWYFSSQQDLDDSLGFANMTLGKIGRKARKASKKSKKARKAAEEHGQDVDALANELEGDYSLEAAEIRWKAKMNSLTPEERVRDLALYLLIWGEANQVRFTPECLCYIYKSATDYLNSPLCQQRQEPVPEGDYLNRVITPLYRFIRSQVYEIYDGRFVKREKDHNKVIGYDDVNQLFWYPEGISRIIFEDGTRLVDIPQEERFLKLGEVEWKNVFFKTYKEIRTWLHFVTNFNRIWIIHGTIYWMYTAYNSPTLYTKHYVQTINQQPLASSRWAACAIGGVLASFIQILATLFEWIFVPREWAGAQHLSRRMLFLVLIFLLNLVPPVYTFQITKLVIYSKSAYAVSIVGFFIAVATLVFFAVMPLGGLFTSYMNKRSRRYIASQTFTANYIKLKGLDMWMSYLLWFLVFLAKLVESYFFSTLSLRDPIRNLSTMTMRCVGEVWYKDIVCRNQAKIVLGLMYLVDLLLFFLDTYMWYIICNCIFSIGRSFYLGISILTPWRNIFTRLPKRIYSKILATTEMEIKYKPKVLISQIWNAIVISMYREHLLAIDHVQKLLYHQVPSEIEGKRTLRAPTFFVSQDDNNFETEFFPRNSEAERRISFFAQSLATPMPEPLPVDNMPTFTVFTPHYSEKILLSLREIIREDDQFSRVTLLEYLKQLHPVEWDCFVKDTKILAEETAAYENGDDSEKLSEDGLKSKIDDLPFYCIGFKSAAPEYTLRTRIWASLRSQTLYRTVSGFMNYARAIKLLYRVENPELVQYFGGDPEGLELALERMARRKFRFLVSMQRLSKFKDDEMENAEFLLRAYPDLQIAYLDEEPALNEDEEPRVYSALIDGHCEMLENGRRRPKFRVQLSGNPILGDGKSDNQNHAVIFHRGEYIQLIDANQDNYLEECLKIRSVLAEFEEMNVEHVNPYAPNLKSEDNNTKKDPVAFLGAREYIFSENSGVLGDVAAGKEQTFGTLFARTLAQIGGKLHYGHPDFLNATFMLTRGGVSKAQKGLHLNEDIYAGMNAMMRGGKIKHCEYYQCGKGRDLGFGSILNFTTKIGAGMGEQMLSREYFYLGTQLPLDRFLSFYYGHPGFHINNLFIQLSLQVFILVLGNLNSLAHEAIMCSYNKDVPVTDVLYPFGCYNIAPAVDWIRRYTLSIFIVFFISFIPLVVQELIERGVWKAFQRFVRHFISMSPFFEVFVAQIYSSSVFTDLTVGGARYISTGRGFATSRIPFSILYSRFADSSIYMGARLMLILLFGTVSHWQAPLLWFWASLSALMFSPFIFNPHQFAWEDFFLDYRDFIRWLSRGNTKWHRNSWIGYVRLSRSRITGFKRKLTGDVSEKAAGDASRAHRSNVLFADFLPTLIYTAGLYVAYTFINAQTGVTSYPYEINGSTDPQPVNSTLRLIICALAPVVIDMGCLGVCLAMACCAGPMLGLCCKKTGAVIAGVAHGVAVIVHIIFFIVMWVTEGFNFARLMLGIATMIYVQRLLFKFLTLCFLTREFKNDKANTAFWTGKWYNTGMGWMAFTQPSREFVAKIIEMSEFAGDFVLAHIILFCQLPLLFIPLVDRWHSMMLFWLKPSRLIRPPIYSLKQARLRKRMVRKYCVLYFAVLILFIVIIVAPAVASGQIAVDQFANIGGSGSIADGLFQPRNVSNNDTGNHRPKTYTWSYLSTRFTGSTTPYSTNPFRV
T1 sequence (O42825 whole entry partner): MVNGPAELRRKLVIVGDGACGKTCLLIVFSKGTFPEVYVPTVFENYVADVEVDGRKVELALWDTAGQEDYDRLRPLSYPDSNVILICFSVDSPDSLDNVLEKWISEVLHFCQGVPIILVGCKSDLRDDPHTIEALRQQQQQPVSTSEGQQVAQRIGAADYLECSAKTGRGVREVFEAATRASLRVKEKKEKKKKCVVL
In words: Glucan synthase inhibition (polymerization assay, 96-well, 3H-UDPG incorporation). Type of assay: biochemical. The conditions noted are these: glucan synthase from C. albicans MY1055. Here is the method:
The in vitro evaluation of glucan synthase inhibitory activity of compounds was measured in a polymerization assay in 96-well format. Each well contained 100 μL of ^3H-UDPG at 0.5 mM (6000 to 8000 dpm/nmol), 50 mM HEPES pH 7.5 (Sigma), 10% w/v glycerol (Sigma), 1.5 mg/mL bovine serum albumin (Sigma A 9647. Lot 44H0190), 25 mM KF (Fisher), 1 mM EDTA (Gibco Ultrapure), 25 μM GTP-γ-S, enzyme sufficient to give 3 to 6 nmoles incorporation during the 60 min incubation at 22° C., and test compound added from wells in 3-fold serial dilutions in 100% DMSO (1 μL/well). The reaction was stopped by the addition of 100 μL of 20% trichloroacetic acid. Plates were chilled for a minimum of 10 min, and precipitated glucan collected by filtration on GF/C plates (Packard Unifilter®-96), washed with 5 cycles of water (about 1 mL/well each cycle) using a Packard Filtermate Harvester. 40 μL/well scintillation fluid (Packard Ultima Gold TM-XR) was added and the sealed plates counted in a Wallac Beta counter in top-counting mode at an efficiency of approximately 40%.
Stock solutions were stored at 10 mg/mL in DMSO at −20° C. For each new enzyme preparation, the initial titration performed started at 1 mg/mL, which was prepared by making a 10-fold dilution in DMSO (5 μL to 50 μL). 40 μL of this stock was placed in column 12 of a round-bottomed 96-well microtiter plate. 40 μL DMSO was added to columns 1 to 11 in the same row and ten 3-fold serial dilutions performed, by transferring 20 μL from column 12 to column 11 etc., with 4 mixings before each transfer. No test compound was transferred to from column 2 to column 1. Duplicate aliquots of 1 μL of all 12 dilutions were then transferred to the side walls of a 96-well Bioblock 1.1 mL plate (Fisherbrand) to create two rows.
The results were tabulated and a standard plate background was subtracted and the net count transpose-pasted into a Prism file, with final compound concentrations used in ng/mL. Graphs were created in Prism software, using the average of two determinations, and using Prism's curve fitting program (sigmoidal dose response non-linear regression).
Routine analysis was performed with glucan synthase (GS) prepared from Candida albicans MY1055 by the following procedure: MY1055 was grown in 10 liters YPD medium (10 g yeast extract, 20 g tryptone, 20 g glucose per liter) with vigorous shaking at 30° C., to early stationary phase. Cells were harvested by centrifugation, the pellet was washed and frozen at −70° C. until breakage. Thawed pellets were shaken with an equal volume of breakage buffer (50 mM HEPES pH 7.4, 10% glycerol, 1 mM EDTA, 1 mM PMSF, 1 mM DTT) and 4 times their weight of 0.5 mm acid washed glass beads for 2 hours at 4° C. Extent of breakage was assessed visually at 40× magnification. For C. parapsilosis strains, shaking was extended to 3 hours to maximize breakage. After low speed centrifugation to remove cell debris, the supernatant was centrifuged at 100,000×g for 60 min. to separate membranes plus ribosomes from cytoplasmic components. Membranes were further washed two additional times with breakage buffer using the same centrifugation conditions and finally suspended in breakage buffer at 25 to 30 mg/mL protein (Biorad) for storage at −70° C. Extraction of GS activity from membranes was performed at a protein concentration of 5 mg/mL in extraction buffer (50 mM NaPO4 pH 7.5, 0.1 M KCl, 0.1M Na citrate, 20% glycerol, 5 μM GTP-γ-S, 1 mM DTT, 1 mM PMSF, 3 μg/mL pepstatin) plus 0.25% W1 by gentle mixing at 4° C. for 60 min, followed by centrifugation at 100,000×g for 60 min. After centrifugation, clear supernatant was removed from a pellet consisting of a hard layer usually with small amounts of gelatinous unextracted membranes above it. […]
Molecule `CC(=O)O[C@@H]1C[C@@]23COC[C@](C)(C2CC[C@H]2C3=CC[C@@]3(C)[C@H](C(=O)O)[C@@](C)([C@H](C)C(C)C)CC[C@]23C)[C@H]1OCCNC(=N)NC(C)(C)C` (stereo partly drawn) [Example 24, (1S,2R,3R,4aR,6aS,7R,8R,10aR,10bR,12aR)-3-(acetyloxy)-2-[2-(N′-tert-butylguanidino)-ethoxy]-8-[(1R)-1,2-dimethylpropyl]-1,6a,8,10a-tetramethyl-1,3,4,6,6a,7,8,9,10,10a,10b,11,12,12a-tetradecahydro-2H-1,4a-(methanooxymethano)chrysene-7-carboxylic acid] had an IC50 of 32.7 nM. For `CC(=O)O[C@@H]1C[C@@]23COC[C@](C)([C@@H]2CC[C@H]2C3=CC(=O)[C@@]3(C)[C@H](C(=O)O)[C@@](C)([C@H](C)C(C)C)CC[C@]23C)[C@H]1OCCCN` [Example 109, (1S, 2R, 3R, 4aR, 6aS, 7R, 8R, 10aR, 10bR, 12aR)-3-(acetyloxy)-2-(3-aminopropoxy)-8-[(1R)-1,2-dimethylpropyl]-1,6a,8,10a-tetramethyl-6-oxo-1,3,4,6,6a,7,8,9, 10,10a,10b,11,12,12a-tetradeca hydro-2H-1,4a-(methanooxymethano) chrysene-7-carboxylic acid] the value was 155 nM. `CC(=O)O[C@@H]1C[C@@]23COC[C@@](C)([C@@H]2CC[C@H]2C3=CC(=O)[C@@]3(C)[C@H](C(=O)O)[C@@](C)([C@H](C)C(C)C)CC[C@]23C)[C@H]1OCC(CN)CN(C)C` (stereo partly drawn) [Example 68, (1S,2R,3R,4aR,6aS,7R,8R,10aR,10bR,12aR)-3-(acetyloxy)-2-(2-aminomethyl-3-dimethylaminopropoxy)-8-[(1R)-1,2-dimethylpropyl]-1,6a,8,10a-tetramethyl-6-oxo-1,3,4,6,6a,7,8,9,10,10a,10b,11,12,12a-tetradecahydro-2H-1,4a-(methanooxymethano)chrysene-7-carboxylic acid] gave a 50% inhibitory concentration (IC50) of 205 nM. `CC(=O)O[C@@H]1C[C@@]23COC[C@](C)([C@@H]2CC[C@H]2C3=CC(=O)[C@@]3(C)[C@H](C(=O)O)[C@@](C)([C@H](C)C(C)C)CC[C@]23C)[C@H]1OCC(C)NCc1ccc(CO)o1` (stereo partly drawn) [Example 71, (1S, 2R, 3R, 4aR, 6aS, 7R, 8R, 10aR, 10bR, 12aR)-3-(acetyloxy)-2-{2-[(5-hydroxymethylfuran-2-ylmethyl)-amino]-propoxy}-8-[(1R)-1,2-dimethylpropyl]-1,6a,8,10a-tetramethyl-6-oxo-1,3,4,6,6a,7,8,9,10,10a,10b,11, 12,12a-tetradecahydro-2H-1,4a-(methanooxymethano)chrysene-7-carboxylic acid] had an IC50 of 343 nM. Take `CC(=O)O[C@@H]1C[C@@]23COC[C@@](C)([C@@H]2CC[C@H]2C3=CC(=O)[C@@]3(C)[C@H](C(=O)O)[C@@](C)([C@H](C)C(C)C)CC[C@]23C)[C@H]1OC[C@](C)(C(C)C)N(C)C` [Example 150, (1S,2R,3R,4aR,6aS,7R,8R,10aR,10bR,12aR)-3-(acetyloxy)-2-[(2S)-2-dimethylamino-2,3-dimethylbutyloxy]-8-[(1R)-1,2-dimethylpropyl]-1,6a,8,10a-tetramethyl-6-oxo-1,3,4,6,6a,7,8,9,10,10a,10b,11,12,12a-tetradecahydro-2H-1,4a-(methanooxymethano)chrysene-7-carboxylic acid]: the IC50 was 20.8 nM. `COCC(CO[C@H]1[C@H](OC(C)=O)C[C@@]23COC[C@]1(C)[C@@H]2CC[C@H]1C3=CC(=O)[C@@]2(C)[C@H](C(=O)O)[C@@](C)([C@H](C)C(C)C)CC[C@]12C)N(C)C` (stereo partly drawn) [Example 65, (1S,2R,3R,4aR,6aS,7R,8R,10aR,10bR,12aR)-3-(acetyloxy)-2-(2-dimethylamino-3-methoxypropoxy)-8-[(1R)-1,2-dimethylpropyl]-1,6a,8,10a-tetramethyl-6-oxo-1,3,4,6,6a,7,8,9,10,10a,10b,11,12,12a-tetradecahydro-2H-1,4a-(methanooxymethano)chrysene-7-carboxylic acid] had an IC50 of 161 nM. For the molecule `CC(=O)O[C@@H]1C[C@@]23COC[C@](C)(C2CC[C@H]2C3=CC[C@@]3(C)[C@H](C(=O)O)[C@@](C)([C@H](C)C(C)C)CC[C@]23C)[C@H]1OCCNC[C@@H](N)CCCCN` (stereo partly drawn) [Example 21, (1S,2R,3R,4aR,6aS,7R,8R,10aR,10bR,12aR)-3-(acetyloxy)-2-[2-((S)-2,6-diaminohexylamino)-ethoxy]-8-[(1R)-1,2-dimethylpropyl]-1,6a,8,10a-tetramethyl-1,3,4,6,6a,7,8,9,10,10a,10b,11,12,12a-tetradecahydro-2H-1,4a-(methanooxymethano)chrysene-7-carboxylic acid], it took 59.6 nM to reach half-maximal inhibition (IC50).

On to `CC(=O)O[C@@H]1C[C@@]23COC[C@@](C)([C@@H]2CC[C@H]2C3=CC(=O)[C@@]3(C)[C@H](C(=O)O)[C@@](C)([C@H](C)C(C)C)CC[C@]23C)[C@H]1OC[C@@](C)(N)C(C)C` [Example 148, (1S,2R,3R,4aR,6aS,7R,8R,10aR,10bR,12aR)-3-acetoxy-2-[[(2S)-2-amino-2,3-dimethylbutyl]oxy]-8-[(1R)-1,2-dimethylpropyl]-1,6a,8,10a-tetramethyl-6-oxo-1,3,4,6,6a,7,8,9,10,10a,10b,11,12,12a-tetradecahydro-2H-1,4a-(methanooxymethano)chrysene-7-carboxylic acid], for which inhibition was half-maximal at 20.2 nM (IC50). `CCCN(CCC)C(CC)COC1C(OC(C)=O)CC23COCC1(C)C2CCC1C3=CC(=O)C2(C)C(C(=O)O)C(C)(C(C)C(C)C)CCC12C` [Example 81, (1S, 2R, 3R, 4aR, 6aS, 7R, 8R, 10aR, 10bR, 12aR)-3-(acetyloxy)-2-(2-dipropylaminobutoxy)-8-[(1R)-1,2-dimethylpropyl]-1,6a,8, 10a-tetramethyl-6-oxo-1,3,4,6,6a,7,8,9,10,10a, 10b,11,12,12a-tetra decahydro-2H-1,4a-(methanooxymethano) chrysene-7-carboxylic acid] gave an IC50 of 497 nM. Turning to `CCC(C)(CO[C@H]1[C@H](OC(C)=O)C[C@@]23COC[C@]1(C)[C@@H]2CC[C@H]1C3=CC(=O)[C@@]2(C)[C@H](C(=O)O)[C@@](C)([C@H](C)C(C)C)CC[C@]12C)N(C)C` (stereo partly drawn) [Example 128, (1S, 2R, 3R, 4aR, 6aS, 7R, 8R, 10aR, 10bR, 12aR)-3-(acetyloxy)-2-(2-dimethylamino-2-methylbutyloxy)-8-[(1R)-1,2-dimethylpropyl]-1,6a,8,10a-tetramethyl-6-oxo-1,3,4,6,6a,7,8,9,10, 10a,10b,11,12,12a-tetradecahydro-2H-1,4a-(methanooxymethano)chrysene-7-carboxylic acid], 91.2 nM corresponded to half-maximal inhibition (IC50). For `CC(=O)O[C@@H]1C[C@@]23COC[C@](C)([C@@H]2CC[C@H]2C3=CC[C@@]3(C)[C@H](C(=O)O)[C@@](C)([C@H](C)C(C)C)CC[C@]23C)[C@H]1OCC(O)(CO)CO` [Example 44, (1S,2R,3R,4aR,6aS,7R,8R,10aR,10bR,12aR)-3-(acetyloxy)-2-(2,3-dihydroxy-2-hydroxymethylpropoxy)-8-[(1R)-1,2-dimethylpropyl]-1,6a,8,10a-tetramethyl-1,3,4,6,6a,7,8,9,10,10a,10b,11,12,12a-tetradecahydro-2H-1,4a-(methanooxymethano)chrysene-7-carboxylic acid] the value was 616 nM.
